# Measured values: patent US8557796B2, “Substituted 1-oxa-2,8-diaza-spiro [4,5] dec-2-ene derivatives and related treatment methods” (Gruenenthal GmbH, priority 2001, dated 2013)
# Tested on: batrachotoxin (BTX) binding site (binding site 2) of the sodium channel
# Test: Bond test on the sodium channel, binding site 2 (BTX bond), [3H]-batrachotoxinin A20 α-benzoate displacement
# Conditions: rat cerebrocortex synaptosomes
row,SMILES,"BTX bond, 10 μM, % inhibition [%]"
1,"COC(=O)C(Cc1c[nH]c2ccccc12)NC(=O)C1=NOC2(CCN(S(=O)(=O)c3ccc(OC(F)(F)F)cc3)CC2)C1 (stereo not drawn) [Example 1, 3-(1H-indo1-3-yl)-2-{[8-(4-trifluoromethoxy-benzene-sulphonyl)-1-oxa-2,8-diaza-spiro[4,5]dec-2-ene-3-carbonyl]-amino}-propionic acid methyl ester]",68
2,CCOP(=O)(Cc1ccc(NC(=O)C2=NOC3(CCN(S(=O)(=O)Cc4ccccc4)CC3)C2)cc1)OCC [Example 2],55
3,"O=C(C1=NOC2(CCN(S(=O)(=O)c3cccs3)CC2)C1)N1CCN(C2CCCCCC2)CC1 [Example 3, (4-cycloheptyl-piperazin-l-yl)-[8-(thiophene-2-sulphonyl)-1-oxa-2,8-diaza-spiro [4,5]dec-2-en-3-yl]-methanone]",78
4,"O=C(NC1CCCC1)C1=NOC2(CCN(C(=O)c3ccc([N+](=O)[O-])cc3Cl)CC2)C1 [Example 5, 8-(2-chloro-4-nitro-benzoyl)-1-oxa-2,8-diaza-spiro[4,5]dec-2-ene-3-carboxylic acid cyclopentylamide]",64
5,"O=C(C1=NOC2(CCN(S(=O)(=O)Cc3ccccc3)CC2)C1)N1CCN(Cc2ccc3ccccc3c2)CC1 [Example 6, (4-naphthalen-2-ylmethyl-piperazin-l-yl)-(8-phenylmethane-sulphonyl-1-oxa-2,8 diaza-spiro[4,5]dec-2-en-3-yl)-methanone]",49
6,"CC(NC(=O)C1=NOC2(CCN(S(=O)(=O)c3cccs3)CC2)C1)c1ccccc1 (stereo not drawn) [Example 8, 8-(thiophene-2-sulphonyl)-1-oxa-2,8-diaza-spiro[4,5]dec-2-ene-3-carboxylic acid (1-phenyl-ethyl)-amide]",63
7,O=C(NCCN1CCCC1)C1=NOC2(CCN(S(=O)(=O)c3ccc(F)c(Cl)c3)CC2)C1 [Example 11],69
8,"O=C(C1=NOC2(CCN(S(=O)(=O)c3cccs3)CC2)C1)N1CCN(CCCc2ccccc2)CC1 [Example 14, [4-(3-phenyl-propyl)-piperazin-l-yl]-[8-(thiophene-2-sulphonyl)-1-oxa-2,8-diaza-spiro[4,5]dec-2-en-3-yl]-methanone]",79
9,"CC1CCCCN1CCCNC(=O)C1=NOC2(CCN(S(=O)(=O)c3cc(Cl)ccc3Cl)CC2)C1 (stereo not drawn) [Example 15, 8-(2,5-dichloro-benzenesulphonyl)-1-oxa-2,8-diaza-spiro[4,5]dec-2-ene-3-carboxylic acid[3-(2-methyl-piperidin-1-yl)-propyl]-amide]",88
10,"CN(CCc1c[nH]c2ccccc12)C(=O)C1=NOC2(CCN(S(=O)(=O)c3ccc(OC(F)(F)F)cc3)CC2)C1 [Example 16, 8-(4-trifluoromethoxy-benzenesulphonyl)-1-oxa-2,8-diaza-spiro[4,5]dec-2-ene-3 carboxylic acid [2-(1 H-indo1-3-yl)-ethyl]-methyl-amide]",60
11,"Cc1ccc(S(=O)(=O)N2CCC3(CC2)CC(C(=O)N(CCc2ccccc2)Cc2ccccc2)=NO3)cc1 [Example 18, 8-(toluene-4-sulphonyl)-1-oxa-2,8-diaza-spiro[4,5]dec-2-ene-3-carboxylic acid benzyl-phenethyl-amide]",53
12,"Cc1ccc([N+](=O)[O-])cc1S(=O)(=O)N1CCC2(CC1)CC(C(=O)NCCN(C)C)=NO2 [Example 19, 8-(2-methyl-5-nitro-benzenesulphonyl)-1-oxa-2,8-diaza-spiro[4,5]dec-2-ene-3 carboxylic acid (2-dimethylamino-ethyl)-amide]",66
13,"O=C(NC1CCCC1OCc1ccccc1)C1=NOC2(CCN(S(=O)(=O)Cc3ccccc3)CC2)C1 (stereo not drawn) [Example 20, 8-phenylmethanesulphonyl-1-oxa-2,8-diaza-spiro[4,5]dec-2-ene-3-carboxylic acid (2-benzyloxy-cyclopentyl)-amide]",69
14,"O=C(NCC1COc2ccccc2O1)C1=NOC2(CCN(S(=O)(=O)c3cccs3)CC2)C1 (stereo not drawn) [Example 21, 8-(thiophene-2-sulphonyl)-1-oxa-2,8-diaza-spiro[4,5]dec-2-ene-3-carboxylic acid (2,3-dihydro-benzo[1,4]dioxin-2-ylmethyl)-amide]",63
15,"Cc1ccc(C(C)NC(=O)C2=NOC3(CCN(S(=O)(=O)c4cccs4)CC3)C2)cc1 (stereo not drawn) [Example 23, 8-(thiophene-2-sulphonyl)-1-oxa-2,8-diaza-spiro[4,5]dec-2-ene-3-carboxylic acid (1-p-tolyl-ethyl)-amide]",60
16,"O=C(NCc1cccc(F)c1)C1=NOC2(CCN(S(=O)(=O)c3cccs3)CC2)C1 [Example 24, 8-(thiophene-2-sulphonyl)-1-oxa-2,8-diaza-spiro[4,5]dec-2-ene-3-carboxylic acid 3-fluorobenzylamide]",41
17,"O=C(NC1CCN(Cc2ccc(C(F)(F)F)cc2)C1)C1=NOC2(CCN(S(=O)(=O)c3cccs3)CC2)C1 (stereo not drawn) [Example 26, 8-(thiophene-2-sulphonyl)-1-oxa-2,8-diaza-spiro[4,5]dec-2-ene-3-carboxylic acid [1-(4-trifluoromethyl-benzyl)-pyrrolidin-3-yl]-amide]",84

row,SMILES,"BTX bond, 10 μM, % inhibition [%]"
1,"Cc1ccccc1N1CCN(C(=O)C2=NOC3(CCN(S(=O)(=O)c4cccs4)CC3)C2)CC1 [Example 27, [8-(thiophene-2-sulphonyl)-1-oxa-2,8-diaza-spiro[4,5]dec-2-en-3-yl]-(4-o-tolyl-piperazin-1-yl)-methanone]",74
2,"Cc1ccc(S(=O)(=O)N2CCC3(CC2)CC(C(=O)N(CCC#N)Cc2ccccc2)=NO3)cc1 [Example 28, 8-(toluene-4-sulphonyl)-1-oxa-2,8-diaza-spiro[4,5]dec-2-ene-3-carboxylic acid benzyl-(2-cyano-ethyl)-amide]",52
3,"O=C(NCc1ccc2c(c1)OCO2)C1=NOC2(CCN(S(=O)(=O)c3ccc(Cl)s3)CC2)C1 [Example 30, 8-(5-chloro-thiophene-2-sulphonyl)-1-oxa-2,8-diaza-spiro[4,5]dec-2-ene-3-carboxylic acid (benzo[1,3]dioxol-5-ylmethyl)-amide]",56
4,"Cc1cccc(N2CCN(C(=O)C3=NOC4(CCN(S(=O)(=O)c5cccs5)CC4)C3)CC2C)c1 (stereo not drawn) [Example 31, (3-methyl-4-m-tolyl-piperazin-l-yl)-[8-(thiophene-2-sulphonyl)-1-oxa-2,8-diaza-spiro[4,5]dec-2-en-3-yl]-methanone]",80
5,"Cc1ccc(S(=O)(=O)N2CCC3(CC2)CC(C(=O)N2CCN(C(C)c4ccccc4)CC2)=NO3)cc1 (stereo not drawn) [Example 32, [4-(1-phenyl-ethyl)-piperazin-l-yl]-[8-(toluene-4-sulphonyl)-1-oxa-2,8-diaza-spiro[4,5]dec-2-en-3-yl]-methanone]",66
6,"Cc1ccc(S(=O)(=O)N2CCC3(CC2)CC(C(=O)N2CCN(c4ccc(C)cc4C)CC2)=NO3)cc1 [Example 33, [4-(2,4-dimethyl-phenyl)-piperazin-l-yl]-[8-(toluene-4-sulphonyl)-1-oxa-2,8-diazaspiro[4,5]dec-2-en-3-yl]methanone]",67
7,"O=C(C1=NOC2(CCN(S(=O)(=O)c3cccc(C(F)(F)F)c3)CC2)C1)N1CCN(Cc2ccc3ccccc3c2)CC1 [Example 35, (4-naphthalen-2-ylmethyl-piperazin-l-yl)-[8-(3-trifluoromethyl-benzenesulphonyl)-1-oxa-2,8-diaza-spiro[4,5]dec-2-en-3-yl]-methanone]",50
8,"Cc1ccc(F)cc1S(=O)(=O)N1CCC2(CC1)CC(C(=O)NCCN(C)C)=NO2 [Example 37, 8-(5-fluoro-2-methyl-benzenesulphonyl)-1-oxa-2,8-diaza-spiro[4,5]dec-2-ene-3-carboxylic acid (2-dimethylamino-ethyl)-amide]",70
9,"O=C(NCc1cccs1)C1=NOC2(CCN(S(=O)(=O)c3ccc([N+](=O)[O-])cc3)CC2)C1 [Example 38, 8-(4-nitro-benzenesulphonyl)-1-oxa-2,8-diaza-spiro[4,5]dec-2-ene-3-carboxylic acid (thiophen-2-ylmethyl)-amide]",65
10,"O=C(NC(c1ccccc1)c1ccccc1)C1=NOC2(CCN(S(=O)(=O)c3ccc(Cl)s3)CC2)C1 [Example 40, 8-(5-chloro-thiophene-2-sulphonyl)-1-oxa-2,8-diaza-spiro[4,5]dec-2-ene-3 carboxylic acid benzhydryl-amide]",47
11,"Cc1ccc(C(C)NC(=O)C2=NOC3(CCN(S(=O)(=O)c4ccc(C)cc4)CC3)C2)cc1 (stereo not drawn) [Example 45, 8-(toluene-4-sulphonyl)-1-oxa-2,8-diaza-spiro[4,5]dec-2-ene-3-carboxylic acid (1-p-tolyl-ethyl)-amide]",49
12,"O=C(NC1CCCC1OCc1ccccc1)C1=NOC2(CCN(S(=O)(=O)c3cccs3)CC2)C1 (stereo not drawn) [Example 47, 8-(thiophene-2-sulphonyl)-1-oxa-2,8-diaza-spiro[4,5]dec-2-ene-3-carboxylic acid (2-benzyloxy-cyclopentyl)-amide]",71
13,"CC(=O)N1CCC2(CC1)CC(C(=O)NCc1ccccc1)=NO2 [Example 48, 8-acetyl-1-oxa-2,8-diaza-spiro[4,5]dec-2-ene-3-carboxylic acid benzylamide]",43
14,"O=C(NC1CCN(Cc2ccc3ccccc3c2)C1)C1=NOC2(CCN(S(=O)(=O)c3ccc(Cl)s3)CC2)C1 (stereo not drawn) [Example 50, 8-(5-chloro-thiophene-2-sulphonyl)-1-oxa-2,8-diaza-spiro[4,5]dec-2-ene-3 carboxylic acid (1-naphthalen-2-ylmethyl-pyrrolidin-3-yl)-amide]",87
15,"CCc1ccc(C(=O)N2CCC3(CC2)CC(C(=O)NCc2cccs2)=NO3)cc1 [Example 52, 8-(4-ethyl-benzoyl)-1-oxa-2,8-diaza-spiro[4,5]dec-2-ene-3-carboxylic acid (thiophen-2-ylmethyl)-amide]",63
16,C=CCOC(=O)C(CC(=O)OC(C)(C)C)NC(=O)C1=NOC2(CCN(S(=O)(=O)c3cc(Cl)ccc3Cl)CC2)C1 (stereo not drawn) [Example 53],47
